This passage reports Kd results from article PMC11667666, “Light-Driven Hybrid Nanoreactor Harnessing the Synergy of Carboxysomes and Organic Frameworks for Efficient Hydrogen Production” (ACS Catalysis, 2024).

In this assay the target is T1, recombinant α-carboxysome shell (Halothiobacillus neapolitanus, UniProt P45688+P45689+P45690).
T1 construct: gene csoS1A; whole self-assembled multi-paralog shell (about 90 nm) from pBAD-cso-2 in E. coli; CsoS1 hexamers, CsoS4 pentamers, CsoS2 linker; with Carboxysome shell vertex protein CsoS4A; Carboxysome shell vertex protein CsoS4B; Carboxysome assembly protein CsoS2
Description: isothermal titration calorimetry. It is filed as binding. To be noted: TBAP (50 μM) titrated into whole shell (3.75 μM); 20 mM Tris-HCl pH 8.0, 150 mM NaCl; multi-protein particle, site not resolved by ITC. (In ITC the heat of successive injections is recorded.)

T1 sequence (O85044 whole entry): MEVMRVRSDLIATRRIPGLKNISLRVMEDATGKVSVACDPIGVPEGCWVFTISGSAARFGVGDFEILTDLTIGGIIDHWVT
T1 sequence (P45688 whole entry): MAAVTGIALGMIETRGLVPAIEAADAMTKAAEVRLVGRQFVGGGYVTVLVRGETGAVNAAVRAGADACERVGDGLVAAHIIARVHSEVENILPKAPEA
T1 sequence (O85041 whole entry, further chain): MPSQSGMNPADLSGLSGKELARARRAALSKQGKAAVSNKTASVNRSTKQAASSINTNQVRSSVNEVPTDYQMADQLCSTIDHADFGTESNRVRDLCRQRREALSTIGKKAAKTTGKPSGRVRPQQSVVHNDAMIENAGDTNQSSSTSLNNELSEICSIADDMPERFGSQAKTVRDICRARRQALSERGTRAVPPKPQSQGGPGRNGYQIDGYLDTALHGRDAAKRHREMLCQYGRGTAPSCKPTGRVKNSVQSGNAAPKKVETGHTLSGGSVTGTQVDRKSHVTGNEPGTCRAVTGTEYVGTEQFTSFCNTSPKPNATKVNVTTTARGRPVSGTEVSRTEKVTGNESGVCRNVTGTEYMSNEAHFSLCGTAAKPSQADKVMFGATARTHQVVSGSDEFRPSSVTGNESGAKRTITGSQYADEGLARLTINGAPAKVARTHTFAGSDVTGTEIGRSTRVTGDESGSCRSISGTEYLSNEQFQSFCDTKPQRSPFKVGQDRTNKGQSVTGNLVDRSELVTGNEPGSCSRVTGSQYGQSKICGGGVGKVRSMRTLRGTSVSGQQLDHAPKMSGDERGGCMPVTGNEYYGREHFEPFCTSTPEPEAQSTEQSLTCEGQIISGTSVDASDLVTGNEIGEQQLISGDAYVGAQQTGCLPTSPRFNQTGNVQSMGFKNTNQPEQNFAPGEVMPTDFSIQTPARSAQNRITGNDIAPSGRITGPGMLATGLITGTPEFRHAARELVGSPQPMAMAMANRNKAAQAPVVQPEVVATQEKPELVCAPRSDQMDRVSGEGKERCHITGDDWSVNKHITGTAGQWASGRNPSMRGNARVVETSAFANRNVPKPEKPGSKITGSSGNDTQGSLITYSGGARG
T1 sequence (O85043 whole entry, further chain): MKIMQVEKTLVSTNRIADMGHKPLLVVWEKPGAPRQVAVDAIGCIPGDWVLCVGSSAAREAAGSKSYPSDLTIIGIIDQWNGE
T1 sequence (P45689 2-98): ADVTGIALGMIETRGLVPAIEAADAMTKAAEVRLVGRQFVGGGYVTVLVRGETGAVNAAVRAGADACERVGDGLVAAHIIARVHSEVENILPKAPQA
T1 sequence (P45690 whole entry): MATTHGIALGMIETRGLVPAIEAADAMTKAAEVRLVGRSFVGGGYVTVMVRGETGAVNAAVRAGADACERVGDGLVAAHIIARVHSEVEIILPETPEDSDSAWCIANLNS

Usually Kd stands for the free concentration of one partner at which half of the binding sites on the other are occupied at equilibrium, for simple one-to-one binding. For `O=C(O)c1ccc(-c2cc(-c3ccc(C(=O)O)cc3)c3ccc4c(-c5ccc(C(=O)O)cc5)cc(-c5ccc(C(=O)O)cc5)c5ccc2c3c54)cc1` [TBAP, 1,3,6,8-tetra(4′-carboxyphenyl)pyrene], the Kd was 524 nM.
